{
  "source": "patent US4256883A",
  "about": "“Pyridoza prostacyclin analogues and N-oxides thereof” (Research Corporation, priority 1979, dated 1981)",
  "key": {"[1]": {"tested_on": "isolated perfused cat coronary arteries", "experiment": "Effects on isolated perfused cat coronary arteries (perfusion pressure)", "conditions": "for Biological Activity: Cat Coronary Artery (in words): isolated perfused right coronary artery, 37° C., Krebs-Henseleit", "experimental": "Effects of prostacyclin analogs on isolated perfused cat coronary arteries were measured as follows.\nCats of either sex (2.5-3.5 kg) were anesthetized with sodium pentobarbital (30 mg/kg) given intravenously. […] A 20-gauge stainless steel cannula was inserted into the right coronary artery via the coronary ostium. Distal to the cannula, approximately 1 cm of coronary artery was dissected free of surrounding tissue. The section of right coronary artery with the cannula in place was excised from the heart and immediately transferred to a constant flow perfusion apparatus.\nThe perfusion apparatus consists of a reservoir containing 20 ml of warm (37° C.) oxygenated (95% O2 +5% CO2) K-H solution which bathes the coronary artery and serves as recirculating perfusate. An increase in perfusion pressure indicates vasoconstriction, whereas a decrease in perfusion pressure signifies vasodilation. Following an initial 1 hr. equilibrium period, vascular responsiveness was established by adding 25 mM KCl. After washing with fresh K-H solution for 20-30 mins., the preparation achieved a relatively constant low basal tone. […] Fresh K-H dilutions of stock prostacyclin analog concentrations were added to the perfusate reservoir in 0.1-0.2 ml volumes."}, "[2]": {"tested_on": "human and rabbit citrated platelet-rich plasma", "experiment": "Effects on platelet aggregation (citrated platelet-rich plasma, chronolog aggregometer, 37°)", "type": "cell-based", "conditions": "for Biological Activity: Platelet Aggregation (in words): inhibition of aggregation induced by 2 uM ADP, human and rabbit platelet-rich plasma, 37°", "experimental": "Effects of prostacyclin analogs on platelet aggregation were evaluated using human and rabbit citrated platelet-rich plasma in a chronolog aggregometer at 37°."}, "[3]": {"tested_on": "blood platelet aggregation", "conditions": "background statement, cited from earlier work"}, "[4]": {"conditions": "background; Bundy, Tetrahedron Letters, 1371 (1978); cited from earlier work"}, "blood vessels / arteries": {"tested_on": "blood vessels / arteries", "conditions": "background statement; cited from earlier work"}, "[5]": {"tested_on": "blood platelets and arteries", "conditions": "prior-art analogues, comparison by inventors; cited from earlier work"}, "[6]": {"experiment": "Stability of free acid XXIV in aqueous solutions at 25° C.", "type": "physicochemical", "experimental": "Free acid XXIV was stable in aqueous solutions at 25° C. for at least 30 days."}, "[7]": {"conditions": "number in parentheses, not explained, natural prostacyclin = 1"}},
  "note": "Entries after “also recorded” stand apart in the source; their conditions may differ. Like-named read-outs stand apart in the source and are kept apart here.",
  "data": [
    {"molecule": "6, 9-pyridaza prostacyclin, N-oxides [N-oxides XXV]", "values": [
      {"measurement": "t1/2 Saline (25°)", "result": "> 24", "unit": "h"},
      {"measurement": "Biological Activity: Cat Coronary Artery (in words)", "setting": "[1]", "result": "Small effect"},
      {"measurement": "Biological Activity: Platelet Aggregation (in words)", "setting": "[2]", "result": "Small effect"}
    ]},
    {"molecule": "7,8-dihydro-6,9-pyridaza prostacyclin [XXIII]", "values": [
      {"measurement": "Biological Activity: Cat Coronary Artery (in words)", "setting": "[1]", "result": "Dilator (Potent)"},
      {"measurement": "Biological Activity: Cat Coronary Artery, number in parentheses", "setting": "[1]; [7]", "result": 0.1},
      {"measurement": "Biological Activity: Platelet Aggregation (in words)", "setting": "[2]", "result": "Inhibitor (Potent)"},
      {"measurement": "Biological Activity: Platelet Aggregation, number in parentheses", "setting": "[2]; [7]", "result": 0.1}
    ]},
    {"molecule": "CCCCC[C@H](O)/C=C/[C@@H]1[C@H]2CC(CCCCC(=O)O)=N[C@H]2C[C@H]1O", "note": "[IV]", "values": [
      {"measurement": "effect on blood platelet aggregation (in words)", "setting": "[3]", "result": "potency in inhibiting platelet aggregation"},
      {"measurement": "stability (in words)", "setting": "[4]", "result": "high stability"}
    ]},
    {"molecule": "CCCCC[C@H](O)/C=C/[C@@H]1[C@H]2C/C(=C/CCCC(=O)O)O[C@H]2C[C@H]1O", "note": "[Natural prostacyclin, 6,9α-oxido-11α,15α-dihydroxyprosta (Z)5, E(13)-dienoic acid]", "values": [
      {"measurement": "effect on blood platelet aggregation (in words)", "setting": "[3]; listed as Prostacyclin", "result": "most potent inhibitor of blood platelet aggregation of all the prostaglandins discovered to date"},
      {"measurement": "effect on blood platelet aggregation (in words)", "setting": "[3]; listed as prostacyclin", "result": "destroys platelet aggregates after they have formed"},
      {"measurement": "Biological Activity: Cat Coronary Artery (in words)", "setting": "[1]", "result": "Dilator (Potent)"},
      {"measurement": "half-life", "setting": "t1/2 in saline at 25°", "result": 0.0333, "unit": "h"},
      {"measurement": "Biological Activity: Platelet Aggregation (in words)", "setting": "[2]", "result": "Inhibitor (Potent)"},
      {"measurement": "effect on blood vessels / arteries (in words)", "setting": "blood vessels / arteries", "result": "powerful action as a dilator of blood vessels"}
    ]},
    {"molecule": "CCCCC[C@H](O)/C=C/[C@H]1O[C@H]2C[C@H](O2)[C@@H]1C/C=C\\CCCC(=O)O", "note": "[Thromboxane A2]", "values": [
      {"measurement": "effect on blood platelet aggregation (in words)", "setting": "[3]", "result": "causes platelet aggregation"},
      {"measurement": "effect on blood vessels / arteries (in words)", "setting": "blood vessels / arteries", "result": "powerful constrictor of arteries"}
    ]},
    {"molecule": "CCCCC[C@H](O)/C=C/[C@@H]1[C@H]2CC(CCCCC(=O)O)O[C@H]2C[C@H]1O", "note": "(stereo partly shown) [VI, dihydroprostacyclin]", "values": [
      {"measurement": "biological activity relative to prostacyclin (in words)", "setting": "[5]", "result": "somewhat less, active; also recorded: less biological activity"}
    ]},
    {"molecule": "CCCCC[C@H](O)/C=C/[C@@H]1[C@H]2CC(/C=C/CCC(=O)O)O[C@H]2C[C@H]1O", "note": "(stereo partly shown) [VII, (4E)--isoprostacyclin]", "values": [
      {"measurement": "biological activity relative to prostacyclin (in words)", "setting": "[5]", "result": "somewhat less, active; also recorded: less biological activity"}
    ]},
    {"molecule": "CCCCC[C@H](O)/C=C/[C@@H]1[C@H]2CCC(CCCC(=O)O)=N[C@H]2C[C@H]1O", "note": "[V]", "values": [
      {"measurement": "effect on blood platelet aggregation (in words)", "setting": "[3]", "result": "potency in inhibiting platelet aggregation"},
      {"measurement": "stability (in words)", "setting": "[4]", "result": "high stability"}
    ]},
    {"molecule": "CCCCC[C@H](O)/C=C/[C@@H]1c2cc(CCCCC(=O)O)nnc2C[C@H]1O", "note": "[XXIV, 6,9-pyridaza prostacyclin, free acid]", "values": [
      {"measurement": "Stability in aqueous solutions (stable for at least)", "setting": "[6]", "result": "at least 30 days"},
      {"measurement": "Biological Activity: Cat Coronary Artery (in words)", "setting": "[1]", "result": "Dilator (Potent)"},
      {"measurement": "half-life", "setting": "t1/2 in saline at 25°", "result": "> 24", "unit": "h"},
      {"measurement": "Biological Activity: Platelet Aggregation (in words)", "setting": "[2]", "result": "Inhibitor (Potent)"}
    ]}
  ]
}
